Our source for the Activity, IC50 and zone of inhibition values is ChEMBL document CHEMBL1157321, “Bioactivity profiling using HPLC/microtiter-plate analysis: application to a New Zealand marine alga-derived fungus, Gliocladium sp” (J Nat Prod, 2006).

By IC50 is commonly meant the concentration that inhibits the measured activity by half. A low value points to inhibition by little substance.

Activity calls are given as the source filed them. The calls are words filed in the database; no cut-off is given here.

One assay has as its system Amorphotheca resinae. The assay can be described thus: Antifungal activity against Cladosporium resinae at 40 ug/disk. The format is functional. The conditions noted are these: for zone of inhibition at 40 µg/disc: read-out: IZ.
Another assay deals with P388. Put plainly: Cytotoxicity against mouse P388 cells. The format is functional, cell-based.
The next assay deals with Bacillus subtilis. The assay can be described thus: Antibacterial activity against Bacillus subtilis at 40 ug/disk. The format is functional. The note with it: for zone of inhibition at 40 µg/disc: read-out: IZ.
The test system of assay [1] is Trichophyton mentagrophytes. Put plainly: Antifungal activity against Trichophyton mentagrophytes at 40 ug/disk. The format is functional. The conditions noted are these: for zone of inhibition at 40 µg/disc: read-out: IZ.

As to `C[C@@H]1CCC(=O)/C=C/C(=O)O[C@H](C)C(=O)/C=C/C(=O)O1`, in the assay with Amorphotheca resinae, the result was inactive. In the assay with P388, the IC50 worked out at 3900 nM. Besides, the zone of inhibition at 40 µg/disc (in the assay on Bacillus subtilis; in assay [1]) was 1 mm in each case.
`CC(C)=CCOc1ccc(C[C@H]2NC(=O)[C@H](C)NC(=O)[C@@H](Cc3ccc(O)cc3)NC(=O)CNC(=O)[C@H](C)NC(=O)[C@H](Cc3ccccc3)OC2=O)cc1`: the outcome (in the assay on Amorphotheca resinae; with P388; in the assay on Bacillus subtilis; in assay [1]) was inactive.
As to `C[C@@H]1CCC(=O)/C=C/C(=O)O[C@H](C)[C@@H](O)/C=C/C(=O)O1`, the zone of inhibition at 40 µg/disc with Amorphotheca resinae was found to be 5 mm; in the assay on Bacillus subtilis, 3 mm; in assay [1], 3 mm. The compound also came in with an IC50 in the assay on P388 of 1900 nM.
For `C[C@@H]1CC[C@@H](O)/C=C/C(=O)O[C@H](C)[C@@H](O)/C=C/C(=O)O1` [CLONOSTACHYDIOL], the outcome (in the assay on Amorphotheca resinae; with Bacillus subtilis; in assay [1]) was inactive. The compound further registered an IC50 in the assay with P388 of 25000 nM.
For the compound `C[C@@H]1CC[C@@H](O)/C=C/C(=O)O[C@H](C)C(=O)/C=C/C(=O)O1`, the zone of inhibition at 40 µg/disc in the assay on Amorphotheca resinae is 1 mm; in the assay with Bacillus subtilis it was 6 mm; in assay [1], 2 mm. Moreover, in the assay with P388, it took 550 nM to reach half-maximal inhibition (IC50).
